Source: patent publication US9211310B2, “Use of a Chinese medicine composition in preparing medicaments for treating secondary prevention of myocardial infarction” (TASLY PHARMACEUTICAL GROUP CO., LTD, priority 2010, dated 2015)

Test system: patients after acute myocardial infarction
Experiment: TCM symptom score, total and single (chest pain, chest tightness, short breath, fatigue, palpitation, spontaneous perspiration, pale complexion), same clinical trial
Type: in vivo, human
Design: total score of TCM symptom, Mean / total score of TCM symptom, Min / total score of TCM symptom, Max / total score of TCM symptom, Md / change of total score of TCM symptom, Mean / change of total score of TCM symptom, Max / change of total score of TCM symptom, Md: scale not given here
Excerpt: 3508 patients who were in accordance with the diagnostic standards of AMI for 28 days to 2 years and differentiated as Qi deficiency and blood stagnation syndrome by TCM were studied. 0.5 g Chinese medicine composition prepared by the method of EXAMPLE 1 (Coded as QSYQ) was administrated half an hour after meal, 3 times per day.
They included the overall survival time, angina pectoris score, TCM symptom score and life quality score, where angina pectoris score, TCM symptom score and life quality score were evaluated at randomization, in 1st, 3rd, 6th, 9th, 12th month after treatment and 18th month after follow-up.
The analysis method referred to the angina pectoris score.

## CC(=O)Oc1ccccc1C(=O)O [Control group, aspirine]
FAS, Follow-up-baseline
  change of pale complexion −1, number of patients: 39
  change of pale complexion −1, percent of patients: (2.75%)
  change of palpitation 0, number of patients: 690
  change of palpitation 0, percent of patients: (48.46%)
  change of palpitation 1, number of patients: 528
  change of palpitation 1, percent of patients: (37.08%)
  change of palpitation 2, number of patients: 97
  change of palpitation 2, percent of patients: (6.81%)
  change of palpitation 3, number of patients: 15
  change of palpitation 3, percent of patients: (1.05%)
  change of palpitation −1, number of patients: 90
  change of palpitation −1, percent of patients: (6.32%)
  change of palpitation −2, number of patients: 3
  change of palpitation −2, percent of patients: (0.21%)
  change of palpitation −3, number of patients: 1
  change of palpitation −3, percent of patients: (0.07%)
  change of short breath 0, % of patients: (52.21%)
  change of short breath 0, number of patients: 744
  change of short breath 2, % of patients: (36.42%)
  change of short breath 2, number of patients: 519
  change of short breath 4, % of patients: (5.47%)
  change of short breath 4, number of patients: 78
  change of short breath 6, % of patients: (0.77%)
  change of short breath 6, number of patients: 11
  change of short breath −2, % of patients: (4.98%)
  change of short breath −2, number of patients: 71
  change of short breath −4, % of patients: (0.00%)
  change of short breath −4, number of patients: 0
  change of short breath −6, % of patients: (0.14%)
  change of short breath −6, number of patients: 2
  change of spontaneous perspiration 0, number of patients: 656
  change of spontaneous perspiration 0, percent of patients: (46.07%)
  change of spontaneous perspiration 1, number of patients: 466
  change of spontaneous perspiration 1, percent of patients: (32.72%)
  change of spontaneous perspiration 2, number of patients: 141
  change of spontaneous perspiration 2, percent of patients: (9.90%)
  change of spontaneous perspiration 3, number of patients: 32
  change of spontaneous perspiration 3, percent of patients: (2.25%)
  change of spontaneous perspiration −1, percent of patients: (8.36%)
  change of spontaneous perspiration −2, number of patients: 8
  change of spontaneous perspiration −2, percent of patients: (0.56%)
  change of spontaneous perspiration −3, number of patients: 2
  change of spontaneous perspiration −3, percent of patients: (0.14%)
  change of total score of TCM symptom, Max: 27.00
  change of total score of TCM symptom, Md: −5.00
  change of total score of TCM symptom, Mean: −6.18
  change of total score of TCM symptom, Min: −29.00
Follow-up-baseline, FAS
  change of chest pain score 0, number of patients: 769
  change of chest pain score 0, percent of patients: (54.08%)
  change of chest pain score 3, number of patients: 426
  change of chest pain score 3, percent of patients: (29.96%)
  change of chest pain score 6, number of patients: 158
  change of chest pain score 6, percent of patients: (11.11%)
  change of chest pain score 9, number of patients: 9
  change of chest pain score 9, percent of patients: (0.63%)
  change of chest pain score −2, number of patients: 1
  change of chest pain score −2, percent of patients: (0.07%)
  change of chest pain score −3, number of patients: 47
  change of chest pain score −3, percent of patients: (3.31%)
  change of chest pain score −6, number of patients: 11
  change of chest pain score −6, percent of patients: (0.77%)
  change of chest pain score −9, number of patients: 1
  change of chest pain score −9, percent of patients: (0.07%)
  change of chest tightness score 0, number of patients: 728
  change of chest tightness score 0, percent of patients: (51.09%)
  change of chest tightness score 1, number of patients: 1
  change of chest tightness score 1, percent of patients: (0.07%)
  change of chest tightness score 3, number of patients: 544
  change of chest tightness score 3, percent of patients: (38.18%)
  change of chest tightness score 6, number of patients: 87
  change of chest tightness score 6, percent of patients: (6.11%)
  change of chest tightness score 9, number of patients: 5
  change of chest tightness score 9, percent of patients: (0.35%)
  change of chest tightness score −3, number of patients: 55
  change of chest tightness score −3, percent of patients: (3.86%)
  change of chest tightness score −6, number of patients: 4
  change of chest tightness score −6, percent of patients: (0.28%)
  change of chest tightness score −9, number of patients: 1
  change of chest tightness score −9, percent of patients: (0.07%)
Follow-up-baseline, PP
  change of chest pain score 0, number of patients: 750
  change of chest pain score 0, percent of patients: (54.03%)
  change of chest pain score 3, number of patients: 417
  change of chest pain score 3, percent of patients: (30.04%)
  change of chest pain score 6, number of patients: 155
  change of chest pain score 6, percent of patients: (11.17%)
  change of chest pain score 9, number of patients: 8
  change of chest pain score 9, percent of patients: (0.58%)
  change of chest pain score −2, number of patients: 1
  change of chest pain score −2, percent of patients: (0.07%)
  change of chest pain score −3, number of patients: 47
  change of chest pain score −3, percent of patients: (3.39%)
  change of chest pain score −6, number of patients: 9
  change of chest pain score −6, percent of patients: (0.65%)
  change of chest pain score −9, number of patients: 1
  change of chest pain score −9, percent of patients: (0.07%)
  change of chest tightness score 0, number of patients: 712
  change of chest tightness score 0, percent of patients: (51.19%)
  change of chest tightness score 1, number of patients: 1
  change of chest tightness score 1, percent of patients: (0.07%)
  change of chest tightness score 3, number of patients: 528
  change of chest tightness score 3, percent of patients: (37.96%)
  change of chest tightness score 6, number of patients: 86
  change of chest tightness score 6, percent of patients: (6.18%)
  change of chest tightness score 9, number of patients: 5
  change of chest tightness score 9, percent of patients: (0.36%)
  change of chest tightness score −3, number of patients: 54
  change of chest tightness score −3, percent of patients: (3.88%)
  change of chest tightness score −6, number of patients: 4
  change of chest tightness score −6, percent of patients: (0.29%)
  change of chest tightness score −9, number of patients: 1
  change of chest tightness score −9, percent of patients: (0.07%)
Follow-up, FAS
  chest pain score 0, number of patients: 754
  chest pain score 0, percent of patients: (52.84%)
  chest pain score 2, number of patients: 1
  chest pain score 2, percent of patients: (0.07%)
  chest pain score 3, number of patients: 479
  chest pain score 3, percent of patients: (33.57%)
  chest pain score 6, number of patients: 192
  chest pain score 6, percent of patients: (13.45%)
  chest pain score 9, number of patients: 1
  chest pain score 9, percent of patients: (0.07%)
  chest tightness score 0, number of patients: 754
  chest tightness score 0, percent of patients: (52.84%)
  chest tightness score 2, number of patients: 1
